# Publication PMC5884652, “New antimicrobial peptide kills drug-resistant pathogens without detectable resistance” (Oncotarget, 2018)
# Read-outs that look alike come from different tables or passages of the source. Ends that are not written are not given here.
# Assays:
# E. coli ATCC 25922 = assay type: cell-based, Escherichia coli; conditions: 10 mM sodium phosphate buffer, 10% LB, 37° C, 24 h, mean of 3 experiments
# Excerpt: (§1) The method for peptide synthesis has been described in detail previously. E. coli ATCC 25922 (LB media), P. aeruginosa ATCC 15692 (NB+0.5% NaCl media), Listeria monocytogenes ATCC 3710 (LB media), Staphylococcus epidermidis ATCC 12228 (LB media), and S. aureus ATCC 29213 (TSB media) were obtained from the American Type Culture Collection (Manassas, VA, USA). Bacillus subtilis KCTC 1998 (LB media), Salmonella typhimurium KCTC 1926 (NB media), and Proteus vulgaris KCTC 2433 (NB media) were obtained from the Korean Collection for Type Cultures (Jeollabuk-do, Korea). E. coli CCARM 1238 was received from the Culture Collection of Antibiotic Resistant Microbes at Seoul Women’s University, Korea. Drug-resistant P. aeruginosa 3543, 3904, 3547, and 4007 and S. aureus 3126, 0027, 5157, 1635, 4761, 5159, 3359, 2122, 1630, 1870, 3511, 5156, and 3518 were resistant strains isolated from patients with otitis media in a Chonnam National University’s hospital.
# (§2) The antibacterial activities of AMPs (melittin, clavaspirin, and its analogs) and conventional antibiotic drugs (erythromycin, gentamicin, ampicillin, and piperacidin) were determined using microdilution assays. Bacterial cells were cultured at 37° C in appropriate culture media at pH 5.5 or pH 7.4 until collection during the mid-log phase and suspended in 10 mM sodium phosphate buffer (pH 5.5 or pH 7.4) supplemented with 10% culture medium. Thereafter, 2× serial dilutions of each peptide (0.25–128 μM) or antibiotic (0.25–256 μM) were added to sterile 96-well plates, and aliquots of cell suspension (5 × 10^5 colony forming units (cfu)/mL) were seeded into each well. The samples were then incubated at 37° C for 24 h. At the end of the incubation, the minimum inhibitory concentrations (MICs) of the peptides were determined using a VERSA Max microplate reader (Molecular Devices Co., Sunnyvale, CA, USA) at a wavelength of 600 nm. […] MIC values were calculated as the mean of 3 independent experiments conducted in triplicate.
# P. aeruginosa ATCC 15692 = assay type: cell-based, Pseudomonas aeruginosa; conditions: 10 mM sodium phosphate buffer, 10% LB, 37° C, 24 h, mean of 3 experiments
# Excerpt: as §1, with “E. coli ATCC 25922 (LB media), P. aeruginosa ATCC 15692 (NB+0.5% NaCl media), Listeria monocytogenes ATCC 3710 (LB media), Staphylococcus epidermidis ATCC 12228 (LB media), and S. aureus ATCC 29213 (TSB media) were obtained from the American Type Culture Collection (Manassas, VA, USA).” left out
# as §2, with “Bacterial cells were cultured at 37° C in appropriate culture media at pH 5.5 or pH 7.4 until collection during the mid-log phase and suspended in 10 mM sodium phosphate buffer (pH 5.5 or pH 7.4) supplemented with 10% culture medium.” left out
# [1] = system: Bacillus subtilis KCTC 1998; assay type: cell-based; conditions: 10 mM sodium phosphate buffer, 10% LB, 37° C, 24 h, mean of 3 experiments
# Excerpt: as §1, §2
# [2] = system: Listeria monocytogenes ATCC 3710; assay type: cell-based; conditions: 10 mM sodium phosphate buffer, 10% LB, 37° C, 24 h, mean of 3 experiments
# Excerpt: as §1, §2
# [3] = system: Staphylococcus epidermidis ATCC 12228; assay type: cell-based; conditions: 10 mM sodium phosphate buffer, 10% LB, 37° C, 24 h, mean of 3 experiments
# Excerpt: as §1, §2
# S. aureus ATCC 29213 = assay type: cell-based, Staphylococcus aureus; conditions: 10 mM sodium phosphate buffer, 10% LB, 37° C, 24 h, mean of 3 experiments
# Excerpt: as §1, with “E. coli ATCC 25922 (LB media), P. aeruginosa ATCC 15692 (NB+0.5% NaCl media), Listeria monocytogenes ATCC 3710 (LB media), Staphylococcus epidermidis ATCC 12228 (LB media), and S. aureus ATCC 29213 (TSB media) were obtained from the American Type Culture Collection (Manassas, VA, USA).” left out
# as §2
# [4] = system: Proteus vulgaris KCTC 2433; assay type: cell-based; conditions: 10 mM sodium phosphate buffer, 10% LB, 37° C, 24 h, mean of 3 experiments
# Excerpt: as §1, with “Bacillus subtilis KCTC 1998 (LB media), Salmonella typhimurium KCTC 1926 (NB media), and Proteus vulgaris KCTC 2433 (NB media) were obtained from the Korean Collection for Type Cultures (Jeollabuk-do, Korea).” left out
# as §2
# [5] = system: Salmonella typhimurium KCTC 1926; assay type: cell-based; conditions: 10 mM sodium phosphate buffer, 10% LB, 37° C, 24 h, mean of 3 experiments
# Excerpt: as §1, with “Bacillus subtilis KCTC 1998 (LB media), Salmonella typhimurium KCTC 1926 (NB media), and Proteus vulgaris KCTC 2433 (NB media) were obtained from the Korean Collection for Type Cultures (Jeollabuk-do, Korea).” left out
# as §2
# [6] = system: human red blood cells (hRBCs); assay: Hemolysis; assay type: cell-based; conditions: PBS buffer containing 8% hRBCs, 1 h, 37° C, absorbance 414 nm, triplicate
# Description: Fresh human red blood cells (hRBCs) from healthy donors were centrifuged at 800 × g and washed with phosphate-buffered saline (PBS) until the supernatant was clear. Twofold serial dilutions of the peptides in PBS were added to a 96-well plate, after which the hRBCs were added to obtain a final concentration of 8% (vol/vol). The samples were then incubated with mild agitation for 1 h at 37° C. The samples were then centrifuged at 800 × g for 10 min, and the absorbance of the supernatant was measured at 414 nm. All the measurements were performed in triplicate, and the percentages of hemolysis were calculated using equation 1: % hemolysis=[(A414 in peptide solution−A414 in PBS)/(A414 in […]−A414 in PBS)]×100 (1)
# Where 100% hemolysis was defined as the absorbance measured from hRBCs exposed to 1% Triton X-100 and zero hemolysis was characterized using hRBCs alone in PBS [40].
# [7] = system: HaCaT (human keratinocyte) cells; assay: Cytotoxicity, MTT assay; assay type: cell-based; conditions: DMEM containing 10% FBS and 1% PS, 24 h, 37° C
# Description: To examine the cytotoxic effects of the peptides, HaCaT (human keratinocyte) cells were cultured in Dulbecco’s modified Eagle’s medium (DMEM) supplemented with antibiotics (100 U/ml penicillin and 100 μg/ml streptomycin) and 10% fetal calf serum at 37° C in a humidified chamber under a 5% CO2 atmosphere. Growth inhibition was evaluated using 3-(4, 5-dimethylthizol-2-yl)-2, 5-diphenyltetrazolium bromide (MTT) assays to measure cell viability. After cells were seeded into a 96-well plate at a density of 2 × 10^4/well and incubated for 24 h, twofold serial dilutions of each peptide in DMEM were added to the wells, and the cells were incubated for an additional 24 h at 37° C. Thereafter, 10 μl of MTT (5 mg/ml) was added to each well, and the plate was incubated for 4 h. The supernatants were then removed, and 50 μl of DMSO was added to each well to dissolve any remaining precipitate. Finally, the absorbance at 570 nm was measured using a microtiter reader.
# S. aureus 0027 = assay: microbe, parasite or virus in culture; assay type: cell-based, Staphylococcus aureus; conditions: Staphylococcus aureus, 0027; pH (I or II) not given; 10 mM sodium phosphate buffer, 10% LB; 37° C, 24 h; mean of 3 experiments
# Excerpt: as §1, §2
# S. aureus 1630 = assay: microbe, parasite or virus in culture; assay type: cell-based, Staphylococcus aureus; conditions: Staphylococcus aureus, 1630; pH (I or II) not given; 10 mM sodium phosphate buffer, 10% LB; 37° C, 24 h; mean of 3 experiments
# Excerpt: as §1, §2
# S. aureus 1635 = assay: microbe, parasite or virus in culture; assay type: cell-based, Staphylococcus aureus; conditions: Staphylococcus aureus, 1635; pH (I or II) not given; 10 mM sodium phosphate buffer, 10% LB; 37° C, 24 h; mean of 3 experiments
# Excerpt: as §1, §2
# S. aureus 1870 = assay: microbe, parasite or virus in culture; assay type: cell-based, Staphylococcus aureus; conditions: Staphylococcus aureus, 1870; pH (I or II) not given; 10 mM sodium phosphate buffer, 10% LB; 37° C, 24 h; mean of 3 experiments
# Excerpt: as §1, §2
# S. aureus 2122 = assay: microbe, parasite or virus in culture; assay type: cell-based, Staphylococcus aureus; conditions: Staphylococcus aureus, 2122; pH (I or II) not given; 10 mM sodium phosphate buffer, 10% LB; 37° C, 24 h; mean of 3 experiments
# Excerpt: as §1, §2
# S. aureus 3126 = assay: microbe, parasite or virus in culture; assay type: cell-based, Staphylococcus aureus; conditions: Staphylococcus aureus, 3126; pH (I or II) not given; 10 mM sodium phosphate buffer, 10% LB; 37° C, 24 h; mean of 3 experiments
# Excerpt: as §1, §2
# S. aureus 3359 = assay: microbe, parasite or virus in culture; assay type: cell-based, Staphylococcus aureus; conditions: Staphylococcus aureus, 3359; pH (I or II) not given; 10 mM sodium phosphate buffer, 10% LB; 37° C, 24 h; mean of 3 experiments
# Excerpt: as §1, §2
# S. aureus 3511 = assay: microbe, parasite or virus in culture; assay type: cell-based, Staphylococcus aureus; conditions: Staphylococcus aureus, 3511; pH (I or II) not given; 10 mM sodium phosphate buffer, 10% LB; 37° C, 24 h; mean of 3 experiments
# Excerpt: as §1, §2
# S. aureus 3518 = assay: microbe, parasite or virus in culture; assay type: cell-based, Staphylococcus aureus; conditions: Staphylococcus aureus, 3518; pH (I or II) not given; 10 mM sodium phosphate buffer, 10% LB; 37° C, 24 h; mean of 3 experiments
# Excerpt: as §1, §2
# S. aureus 4761 = assay: microbe, parasite or virus in culture; assay type: cell-based, Staphylococcus aureus; conditions: Staphylococcus aureus, 4761; pH (I or II) not given; 10 mM sodium phosphate buffer, 10% LB; 37° C, 24 h; mean of 3 experiments
# Excerpt: as §1, §2
# S. aureus 5156 = assay: microbe, parasite or virus in culture; assay type: cell-based, Staphylococcus aureus; conditions: Staphylococcus aureus, 5156; pH (I or II) not given; 10 mM sodium phosphate buffer, 10% LB; 37° C, 24 h; mean of 3 experiments
# Excerpt: as §1, §2
# S. aureus 5157 = assay: microbe, parasite or virus in culture; assay type: cell-based, Staphylococcus aureus; conditions: Staphylococcus aureus, 5157; pH (I or II) not given; 10 mM sodium phosphate buffer, 10% LB; 37° C, 24 h; mean of 3 experiments
# Excerpt: as §1, §2
# S. aureus 5159 = assay: microbe, parasite or virus in culture; assay type: cell-based, Staphylococcus aureus; conditions: Staphylococcus aureus, 5159; pH (I or II) not given; 10 mM sodium phosphate buffer, 10% LB; 37° C, 24 h; mean of 3 experiments
# Excerpt: as §1, §2
molecule,measurement,setting,value
FLRFIGSVIHGIGHLVHHIGVAL-NH2 [Clavaspirin],"MIC, E. coli",E. coli ATCC 25922; pH 5.5 (I),2 µM
same,"MIC, E. coli",E. coli ATCC 25922; pH 7.4 (II),64 µM
same,"MIC, P. aeruginosa",P. aeruginosa ATCC 15692; pH 5.5 (I),32 µM
same,"MIC, P. aeruginosa",P. aeruginosa ATCC 15692; pH 7.4 (II),>64 µM
same,"MIC, B. subtilis",[1]; pH 5.5 (I),16 µM
same,"MIC, B. subtilis",[1]; pH 7.4 (II),64 µM
same,"MIC, L. monocytogenes",[2]; pH 5.5 (I),16 µM
same,"MIC, L. monocytogenes",[2]; pH 7.4 (II),64 µM
same,"MIC, S. epidermidis",[3]; pH 5.5 (I),4 µM
same,"MIC, S. epidermidis",[3]; pH 7.4 (II),32 µM
same,"MIC, S. aureus",S. aureus ATCC 29213; pH 5.5 (I),16 µM
same,"MIC, S. aureus",S. aureus ATCC 29213; pH 7.4 (II),64 µM
same,"MIC, P. vulgaris",[4]; pH 5.5 (I),8 µM
same,"MIC, P. vulgaris",[4]; pH 7.4 (II),64 µM
same,"MIC, S. typhimurium",[5]; pH 5.5 (I),32 µM
same,"MIC, S. typhimurium",[5]; pH 7.4 (II),64 µM
same,HC10 (hemolytic activity),[6],37
same,HC50 (hemolytic activity),[6],64
same,EC10 (effective concentration in HaCaT cells),[7],66
CNC(C)C1CCC(N)C(OC2C(N)CC(N)C(OC3OCC(C)(O)C(NC)C3O)C2O)O1 (centres unmarked) [gentamicin],MIC,S. aureus 0027,64 µM
same,MIC,S. aureus 1630,64 µM
same,MIC,S. aureus 1635,> 256 µM
same,MIC,S. aureus 1870,16 µM
same,MIC,S. aureus 2122,128 µM
same,MIC,S. aureus 3126,32 µM
same,MIC,S. aureus 3359,64 µM
same,MIC,S. aureus 3511,> 256 µM
same,MIC,S. aureus 3518,> 256 µM
same,MIC,S. aureus 4761,32 µM
same,MIC,S. aureus 5156,> 256 µM
same,MIC,S. aureus 5157,16 µM
same,MIC,S. aureus 5159,16 µM
